Legend:
Experiment in all cases: KINOMEscan
Type in all cases: binding
CTK = biological target: T1, CTK (Homo sapiens, UniProt P42679)
T1 construct: purchased Eurofins DiscoverX KINOMEscan
In short: (§1)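 Binding reactions proceed for 1 h at room temperature. Kinase not bound by compound is captured on immobilized affinity ligand and quantified by qPCR; Kd is fitted over 12 half-log concentrations, top 33 μM.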

CSNK1G2 = biological target: T2, CSNK1G2 (Homo sapiens, UniProt P78368)
T2 construct: purchased Eurofins DiscoverX KINOMEscan
In short: as §1

FLT3-autoinhibited = biological target: T3, FLT3-autoinhibited (Homo sapiens, UniProt P36888)
T3 construct: purchased Eurofins DiscoverX KINOMEscan
In short: as §1

TYRO3 = biological target: T4, TYRO3 (Homo sapiens, UniProt Q06418)
T4 construct: purchased Eurofins DiscoverX KINOMEscan
In short: as §1

MYLK2 = biological target: T5, MYLK2 (Homo sapiens, UniProt Q9H1R3)
T5 construct: purchased Eurofins DiscoverX KINOMEscan
In short: as §1

SRC = biological target: T6, SRC (Homo sapiens, UniProt P12931)
T6 construct: purchased Eurofins DiscoverX KINOMEscan
In short: as §1

ANKK1 = biological target: T7, ANKK1 (Homo sapiens, UniProt Q8NFD2)
T7 construct: purchased Eurofins DiscoverX KINOMEscan
In short: (§2)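 Read-out is qPCR of kinase not bound to the test compound, recovered by capture on an immobilized affinity ligand after a 1 h room-temperature binding step. Dissociation constants came from 12 half-log dilutions starting at 33 μM.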

ULK2 = biological target: T8, ULK2 (Homo sapiens, UniProt Q8IYT8)
T8 construct: purchased Eurofins DiscoverX KINOMEscan
In short: as §1

MYO3B = biological target: T9, MYO3B (Homo sapiens, UniProt Q8WXR4)
T9 construct: purchased Eurofins DiscoverX KINOMEscan
In short: as §2

ZAK = biological target: T10, ZAK (Homo sapiens, UniProt Q9NYL2)
T10 construct: purchased Eurofins DiscoverX KINOMEscan
In short: as §1

DDR2 = biological target: T11, DDR2 (Homo sapiens, UniProt Q16832)
T11 construct: purchased Eurofins DiscoverX KINOMEscan
In short: as §1

MYLK4 = biological target: T12, MYLK4 (Homo sapiens, UniProt Q86YV6)
T12 construct: purchased Eurofins DiscoverX KINOMEscan
In short: as §1

JAK3 (JH1domain-cat.) = biological target: T13, JAK3 (JH1domain-cat.) (Homo sapiens, UniProt P52333)
T13 construct: JAK3 (JH1domain-cat.); purchased Eurofins DiscoverX KINOMEscan
In short: as §1

FGR = biological target: T14, FGR (Homo sapiens, UniProt P09769)
T14 construct: purchased Eurofins DiscoverX KINOMEscan
In short: as §2

PFTK1 = biological target: T15, PFTK1 (Homo sapiens, UniProt O94921)
T15 construct: purchased Eurofins DiscoverX KINOMEscan
In short: as §2

PRKCI = biological target: T16, PRKCI (Homo sapiens, UniProt P41743)
T16 construct: purchased Eurofins DiscoverX KINOMEscan
In short: as §1

MKNK1 = biological target: T17, MKNK1 (Homo sapiens, UniProt Q9BUB5)
T17 construct: purchased Eurofins DiscoverX KINOMEscan
In short: as §1

MAP3K3 = biological target: T18, MAP3K3 (Homo sapiens, UniProt Q99759)
T18 construct: purchased Eurofins DiscoverX KINOMEscan
In short: as §1

RET (M918T) = biological target: T19, RET (M918T) (Homo sapiens, UniProt P07949, M918T)
T19 construct: purchased Eurofins DiscoverX KINOMEscan
In short: as §1

QSK = biological target: T20, QSK (Homo sapiens, UniProt Q9Y2K2)
T20 construct: purchased Eurofins DiscoverX KINOMEscan
In short: as §1

EGFR = biological target: T21, EGFR (Homo sapiens, UniProt P00533)
T21 construct: purchased Eurofins DiscoverX KINOMEscan
In short: as §1

MERTK = biological target: T22, MERTK (Homo sapiens, UniProt Q12866)
T22 construct: purchased Eurofins DiscoverX KINOMEscan
In short: as §1

ABL1 (M351T)-P = biological target: T23, ABL1 (M351T)-P (Homo sapiens, UniProt P00519, M351T)
T23 construct: purchased Eurofins DiscoverX KINOMEscan
In short: as §1

DRAK2 = biological target: T24, DRAK2 (Homo sapiens, UniProt O94768)
T24 construct: purchased Eurofins DiscoverX KINOMEscan
In short: as §1

ERK8 = biological target: T25, ERK8 (Homo sapiens, UniProt Q8TD08)
T25 construct: purchased Eurofins DiscoverX KINOMEscan
In short: as §2

PIK3C2G = biological target: T26, PIK3C2G (Homo sapiens, UniProt O75747)
T26 construct: purchased Eurofins DiscoverX KINOMEscan
In short: as §1

CSNK1A1 = biological target: T27, CSNK1A1 (Homo sapiens, UniProt P48729)
T27 construct: purchased Eurofins DiscoverX KINOMEscan
In short: as §1

[1] = biological target: T28, JAK1 (JH2domain-pseudokinase) (Homo sapiens, UniProt P23458)
T28 construct: JAK1 (JH2domain-pseudokinase); purchased Eurofins DiscoverX KINOMEscan
In short: as §2

PAK1 = biological target: T29, PAK1 (Homo sapiens, UniProt Q13153)
T29 construct: purchased Eurofins DiscoverX KINOMEscan
In short: as §1

PKAC-α = biological target: T30, PKAC-α (Homo sapiens, UniProt P17612)
T30 construct: purchased Eurofins DiscoverX KINOMEscan
In short: as §1

PKMYT1 = biological target: T31, PKMYT1 (Homo sapiens, UniProt Q99640)
T31 construct: purchased Eurofins DiscoverX KINOMEscan
In short: as §1

SGK3 = biological target: T32, SGK3 (Homo sapiens, UniProt Q96BR1)
T32 construct: purchased Eurofins DiscoverX KINOMEscan
In short: as §2

BRAF = biological target: T33, BRAF (Homo sapiens, UniProt P15056)
T33 construct: purchased Eurofins DiscoverX KINOMEscan
In short: as §2

RIPK4 = biological target: T34, RIPK4 (Homo sapiens, UniProt P57078)
T34 construct: purchased Eurofins DiscoverX KINOMEscan
In short: as §1

MINK = biological target: T35, MINK (Homo sapiens, UniProt Q8N4C8)
T35 construct: purchased Eurofins DiscoverX KINOMEscan
In short: as §2

WNK2 = biological target: T36, WNK2 (Homo sapiens, UniProt Q9Y3S1)
T36 construct: purchased Eurofins DiscoverX KINOMEscan
In short: as §1

NIM1 = biological target: T37, NIM1 (Homo sapiens, UniProt Q8IY84)
T37 construct: purchased Eurofins DiscoverX KINOMEscan
In short: as §1

PCTK2 = biological target: T38, PCTK2 (Homo sapiens, UniProt Q00537)
T38 construct: purchased Eurofins DiscoverX KINOMEscan
In short: as §1

MAP3K4 = biological target: T39, MAP3K4 (Homo sapiens, UniProt Q9Y6R4)
T39 construct: purchased Eurofins DiscoverX KINOMEscan
In short: as §2

CSNK1A1L = biological target: T40, CSNK1A1L (Homo sapiens, UniProt Q8N752)
T40 construct: purchased Eurofins DiscoverX KINOMEscan
In short: as §2

T35 sequence (Q8N4C8 whole entry): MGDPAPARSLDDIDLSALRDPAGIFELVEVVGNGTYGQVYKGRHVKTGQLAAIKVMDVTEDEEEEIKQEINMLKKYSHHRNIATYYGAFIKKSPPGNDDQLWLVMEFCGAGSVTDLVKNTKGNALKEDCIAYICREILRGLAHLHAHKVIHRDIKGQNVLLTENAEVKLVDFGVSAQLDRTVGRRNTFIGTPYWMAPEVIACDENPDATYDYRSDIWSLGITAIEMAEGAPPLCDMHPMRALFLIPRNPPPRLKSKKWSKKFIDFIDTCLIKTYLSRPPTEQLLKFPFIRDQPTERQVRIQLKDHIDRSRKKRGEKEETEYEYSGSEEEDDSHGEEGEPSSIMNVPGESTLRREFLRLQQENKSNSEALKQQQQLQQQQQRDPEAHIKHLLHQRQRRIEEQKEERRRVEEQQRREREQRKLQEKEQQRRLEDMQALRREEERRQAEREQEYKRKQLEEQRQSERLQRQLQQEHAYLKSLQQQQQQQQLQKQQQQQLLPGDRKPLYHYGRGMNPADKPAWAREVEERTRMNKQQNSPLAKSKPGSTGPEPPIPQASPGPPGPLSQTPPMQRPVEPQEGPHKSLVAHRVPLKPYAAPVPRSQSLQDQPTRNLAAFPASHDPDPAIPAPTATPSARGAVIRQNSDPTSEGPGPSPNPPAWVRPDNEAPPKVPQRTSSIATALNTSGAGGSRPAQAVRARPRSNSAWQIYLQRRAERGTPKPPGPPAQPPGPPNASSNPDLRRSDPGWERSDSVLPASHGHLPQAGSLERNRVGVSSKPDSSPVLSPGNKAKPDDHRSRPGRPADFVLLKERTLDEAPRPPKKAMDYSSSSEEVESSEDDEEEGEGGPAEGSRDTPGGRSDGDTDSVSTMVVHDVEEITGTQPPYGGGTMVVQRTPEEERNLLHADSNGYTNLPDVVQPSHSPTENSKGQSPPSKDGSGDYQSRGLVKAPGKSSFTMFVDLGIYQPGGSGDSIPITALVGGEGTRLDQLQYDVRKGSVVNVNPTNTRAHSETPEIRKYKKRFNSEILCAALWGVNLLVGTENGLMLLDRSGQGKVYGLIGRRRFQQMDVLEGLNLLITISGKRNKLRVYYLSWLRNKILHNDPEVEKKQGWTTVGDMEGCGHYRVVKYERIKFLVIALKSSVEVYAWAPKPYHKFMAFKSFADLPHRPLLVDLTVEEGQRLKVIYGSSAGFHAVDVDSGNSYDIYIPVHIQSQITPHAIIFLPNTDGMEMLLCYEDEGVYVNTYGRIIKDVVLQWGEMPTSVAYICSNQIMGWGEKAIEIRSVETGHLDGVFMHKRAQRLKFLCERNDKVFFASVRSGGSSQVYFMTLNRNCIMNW
T11 sequence (Q16832 22-855): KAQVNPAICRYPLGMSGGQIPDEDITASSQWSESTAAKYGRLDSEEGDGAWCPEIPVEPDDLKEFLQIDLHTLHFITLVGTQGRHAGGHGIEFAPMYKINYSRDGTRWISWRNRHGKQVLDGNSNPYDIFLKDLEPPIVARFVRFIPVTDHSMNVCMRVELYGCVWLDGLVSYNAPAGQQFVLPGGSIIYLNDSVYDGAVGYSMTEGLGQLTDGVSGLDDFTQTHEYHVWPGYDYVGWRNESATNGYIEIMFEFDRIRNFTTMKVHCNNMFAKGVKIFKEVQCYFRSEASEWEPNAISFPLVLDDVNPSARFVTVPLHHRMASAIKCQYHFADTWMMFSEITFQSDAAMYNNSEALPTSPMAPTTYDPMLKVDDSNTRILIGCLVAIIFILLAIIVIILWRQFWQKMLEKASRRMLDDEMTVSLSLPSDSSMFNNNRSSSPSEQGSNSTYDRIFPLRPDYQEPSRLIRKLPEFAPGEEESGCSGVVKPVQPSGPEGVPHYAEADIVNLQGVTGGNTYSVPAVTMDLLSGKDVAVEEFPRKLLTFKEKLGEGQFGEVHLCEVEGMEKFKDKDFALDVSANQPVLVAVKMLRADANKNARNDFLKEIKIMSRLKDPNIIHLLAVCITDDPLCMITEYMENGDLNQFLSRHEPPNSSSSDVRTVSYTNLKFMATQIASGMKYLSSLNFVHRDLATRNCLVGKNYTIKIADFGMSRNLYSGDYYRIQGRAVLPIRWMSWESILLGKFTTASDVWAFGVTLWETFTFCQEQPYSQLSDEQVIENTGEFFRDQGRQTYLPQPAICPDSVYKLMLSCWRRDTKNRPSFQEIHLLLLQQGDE
T9 sequence (Q8WXR4 whole entry): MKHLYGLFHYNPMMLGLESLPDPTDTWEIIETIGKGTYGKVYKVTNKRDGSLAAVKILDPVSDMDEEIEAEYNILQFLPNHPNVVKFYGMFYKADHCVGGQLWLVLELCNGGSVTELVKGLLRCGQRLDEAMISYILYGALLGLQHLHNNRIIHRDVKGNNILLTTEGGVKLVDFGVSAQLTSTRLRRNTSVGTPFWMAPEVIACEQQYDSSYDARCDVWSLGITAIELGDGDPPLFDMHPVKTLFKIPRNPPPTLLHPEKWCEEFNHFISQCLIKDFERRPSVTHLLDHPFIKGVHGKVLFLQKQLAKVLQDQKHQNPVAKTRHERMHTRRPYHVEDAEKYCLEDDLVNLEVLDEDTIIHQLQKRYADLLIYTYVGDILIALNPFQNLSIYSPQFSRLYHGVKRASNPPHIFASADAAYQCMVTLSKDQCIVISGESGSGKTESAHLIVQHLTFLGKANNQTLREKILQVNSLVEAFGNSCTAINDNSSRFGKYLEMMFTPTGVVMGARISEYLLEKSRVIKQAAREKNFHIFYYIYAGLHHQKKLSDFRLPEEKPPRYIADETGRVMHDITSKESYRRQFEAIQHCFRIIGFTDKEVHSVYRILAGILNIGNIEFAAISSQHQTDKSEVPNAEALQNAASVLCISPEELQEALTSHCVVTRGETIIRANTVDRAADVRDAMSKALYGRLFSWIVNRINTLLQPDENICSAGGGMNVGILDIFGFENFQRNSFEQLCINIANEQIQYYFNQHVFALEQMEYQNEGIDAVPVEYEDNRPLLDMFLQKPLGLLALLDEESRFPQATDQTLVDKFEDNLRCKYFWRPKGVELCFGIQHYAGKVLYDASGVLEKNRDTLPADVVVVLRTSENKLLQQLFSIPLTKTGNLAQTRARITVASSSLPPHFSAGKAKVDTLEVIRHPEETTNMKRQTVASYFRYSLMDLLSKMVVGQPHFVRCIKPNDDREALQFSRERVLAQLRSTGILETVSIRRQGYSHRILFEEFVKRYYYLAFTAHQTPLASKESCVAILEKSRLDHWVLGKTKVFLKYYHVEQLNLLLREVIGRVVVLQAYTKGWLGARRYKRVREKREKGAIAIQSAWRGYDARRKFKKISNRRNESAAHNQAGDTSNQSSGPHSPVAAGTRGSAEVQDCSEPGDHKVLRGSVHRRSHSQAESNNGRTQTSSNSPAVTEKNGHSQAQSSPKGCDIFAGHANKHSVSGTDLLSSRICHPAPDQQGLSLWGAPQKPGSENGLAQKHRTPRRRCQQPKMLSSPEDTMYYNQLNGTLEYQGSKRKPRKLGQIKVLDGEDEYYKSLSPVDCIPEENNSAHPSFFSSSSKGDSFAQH
T17 sequence (Q9BUB5 whole entry): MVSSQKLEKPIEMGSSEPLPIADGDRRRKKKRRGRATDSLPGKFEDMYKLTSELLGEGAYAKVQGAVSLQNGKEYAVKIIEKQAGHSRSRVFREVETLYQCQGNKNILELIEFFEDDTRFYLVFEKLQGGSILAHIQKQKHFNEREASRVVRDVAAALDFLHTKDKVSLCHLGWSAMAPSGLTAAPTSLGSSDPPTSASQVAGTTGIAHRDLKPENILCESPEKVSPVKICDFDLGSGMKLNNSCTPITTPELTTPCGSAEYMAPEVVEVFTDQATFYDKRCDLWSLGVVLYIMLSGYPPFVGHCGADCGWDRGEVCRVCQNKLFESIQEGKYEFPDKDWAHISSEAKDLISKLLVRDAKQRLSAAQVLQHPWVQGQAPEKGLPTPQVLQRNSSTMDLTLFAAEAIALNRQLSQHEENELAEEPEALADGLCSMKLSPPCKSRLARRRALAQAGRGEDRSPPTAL
T18 sequence (Q99759 whole entry): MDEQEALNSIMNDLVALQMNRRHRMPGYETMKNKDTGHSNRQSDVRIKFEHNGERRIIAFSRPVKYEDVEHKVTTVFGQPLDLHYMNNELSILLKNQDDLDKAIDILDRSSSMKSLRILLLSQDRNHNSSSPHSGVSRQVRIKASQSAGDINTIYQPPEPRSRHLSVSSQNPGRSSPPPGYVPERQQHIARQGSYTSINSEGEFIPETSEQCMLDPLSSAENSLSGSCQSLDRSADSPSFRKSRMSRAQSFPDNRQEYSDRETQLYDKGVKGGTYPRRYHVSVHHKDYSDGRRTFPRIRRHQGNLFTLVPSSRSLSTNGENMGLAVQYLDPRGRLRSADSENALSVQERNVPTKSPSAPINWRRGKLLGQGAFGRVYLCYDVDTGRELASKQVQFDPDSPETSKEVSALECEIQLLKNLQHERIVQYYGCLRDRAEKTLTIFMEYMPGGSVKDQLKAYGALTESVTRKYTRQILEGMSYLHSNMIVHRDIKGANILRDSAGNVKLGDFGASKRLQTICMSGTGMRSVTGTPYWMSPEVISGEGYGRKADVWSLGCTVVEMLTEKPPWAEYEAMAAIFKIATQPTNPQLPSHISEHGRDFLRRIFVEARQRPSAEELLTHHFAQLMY
T1 sequence (P42679 whole entry): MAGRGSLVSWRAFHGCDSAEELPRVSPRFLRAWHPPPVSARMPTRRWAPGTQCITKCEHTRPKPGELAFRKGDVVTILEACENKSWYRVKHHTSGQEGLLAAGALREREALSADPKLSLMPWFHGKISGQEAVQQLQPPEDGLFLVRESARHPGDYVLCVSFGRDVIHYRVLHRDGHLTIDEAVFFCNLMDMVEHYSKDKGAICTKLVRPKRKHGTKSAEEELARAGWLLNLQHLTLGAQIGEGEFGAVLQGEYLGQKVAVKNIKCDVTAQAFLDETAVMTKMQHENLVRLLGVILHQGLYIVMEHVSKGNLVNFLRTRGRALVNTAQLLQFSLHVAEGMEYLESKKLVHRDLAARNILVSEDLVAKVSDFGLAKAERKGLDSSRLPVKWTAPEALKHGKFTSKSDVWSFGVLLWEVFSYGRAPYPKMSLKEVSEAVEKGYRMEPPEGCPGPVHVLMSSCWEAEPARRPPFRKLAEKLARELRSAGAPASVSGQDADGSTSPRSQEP

In the case of `O=C1Nc2c(cc([N+](=O)[O-])c3c2CCCC3)C1=NO` [Compound 5d, 3-(Hydroxyimino)-5-nitro-1,3,6,7,8,9-hexahydro-2H-benzo[g]indol-2-one], the inhibition at 10 µM (CTK) is reported as 0%, the inhibition at 10 µM (CSNK1G2) is reported as 90% and the inhibition at 10 µM (FLT3-autoinhibited) is reported as 4%. It also gave an inhibition at 10 µM (TYRO3) of 18%, an inhibition at 10 µM (MYLK2) of 30% and an inhibition at 10 µM (SRC) of 28%. It also gave an inhibition at 10 µM (ANKK1) of 8%, an inhibition at 10 µM (ULK2) of 52% and an inhibition at 10 µM (MYO3B) of 30%. It also gave an inhibition at 10 µM (ZAK) of 14%, an inhibition at 10 µM (DDR2) of 0% and an inhibition at 10 µM (MYLK4) of 7%. It also gave an inhibition at 10 µM (JAK3 (JH1domain-cat.)) of 49%, an inhibition at 10 µM (FGR) of 0% and an inhibition at 10 µM (PFTK1) of 0%. For the same compound, the inhibition at 10 µM (PRKCI) was 49%, the inhibition at 10 µM (MKNK1) was 72% and the inhibition at 10 µM (MAP3K3) was 68%. It also gave an inhibition at 10 µM (RET (M918T)) of 8%, an inhibition at 10 µM (QSK) of 14% and an inhibition at 10 µM (EGFR) of 15%. For the same compound, the inhibition at 10 µM (MERTK) was 4%, the inhibition at 10 µM (ABL1 (M351T)-P) was 5% and the inhibition at 10 µM (DRAK2) was 78%. It also gave an inhibition at 10 µM (ERK8) of 50%, an inhibition at 10 µM (PIK3C2G) of 43% and an inhibition at 10 µM (CSNK1A1) of 93.5%. For the same compound, the inhibition at 10 µM [1] was 89%, the inhibition at 10 µM (PAK1) was 0% and the inhibition at 10 µM (PKAC-α) was 0%. For the same compound, the inhibition at 10 µM (PKMYT1) was 0%, the inhibition at 10 µM (SGK3) was 55% and the inhibition at 10 µM (BRAF) was 28%. The inhibition at 10 µM (RIPK4) was 55%, the inhibition at 10 µM (MINK) was 70% and the inhibition at 10 µM (WNK2) was 0%. For the same compound, the inhibition at 10 µM (NIM1) was 52%, the inhibition at 10 µM (PCTK2) was 0% and the inhibition at 10 µM (MAP3K4) was 15%. For the same compound, the inhibition at 10 µM (CSNK1A1L) was 63%.

From PMC12300041, “Tricyclic Isatin Derivatives as Anti-Inflammatory Compounds with High Kinase Binding Affinity” (Molecules, 2025)
